Values joined by “and” are separate entries in the source; they are usually repeats but may differ in a detail not shown here. Equal values may be shown once. Read-outs that look alike come from different tables or passages of the source.
Columns and labels:
[1] = Pharmacokinetics in rats after IV and PO administration; type: in vivo, male Sprague–Dawley rats
Method: Animal studies were conducted using established procedures in accordance with the Australian Code of Practice for the Care and Use of Animals for Scientific Purposes, and the study protocols were reviewed and approved by the Monash Institute of Pharmaceutical Sciences Animal Ethics Committee. The study was conducted in overnight-fasted male Sprague–Dawley rats weighing 266–292 g. Rats had access to water ad libitum throughout the pre- and postdose sampling period, and access to food was reinstated 4 h postdose. Compound 1 was administered intravenously as a 10 min constant rate infusion via an indwelling jugular vein cannula (1 mL per rat, n = 5 rats) and orally by gavage (10 mL/kg per rat, n = 2–3 rats), and samples of arterial blood and total urine were collected up to 24 h postdose. Arterial blood was collected directly into borosilicate vials (at 4 °C) containing heparin. Blood samples were centrifuged, and the supernatant plasma was removed and stored frozen (−80 °C) until analysis by LC-MS. Plasma samples and calibration standards (prepared in blank rat plasma) were processed by protein precipitation with a 2-fold volume of acetonitrile. LC-MS analysis was conducted using a Waters Micromass Quattro Premier triple-quadrupole mass spectrometer coupled to a Waters Acquity UPLC with a Phenomenex C18 Kinetex column (50 × 2.1 mm, 2.7 μm). Elution was achieved using a methanol–water gradient (containing 8.2 mM formic acid and 1.25 mM ammonium formate) with a flow rate of 0.6 mL/min, a gradient cycle time of 6 min, and an injection volume of 2 μL. MS detection was conducted using positive electrospray ionization with multiple reaction monitoring. Transitions (m/z), cone voltages (V), and CID voltages (V) were as follows: 1, 430.26 > 99.93, 40, 20; 2, 416.27 > 99.80, 30, 20; 3, 402.22 > 99.93, 35, 20; 4, 388.23 > 99.86, 35, 20; 5: 374.25 > 72.01, 35, 25; diazepam (285.25 > […], 40, 25) (used as an internal standard). The quantitation range in plasma was typically 1–10000 ng/mL, and the accuracy and precision were within ±10% and <10%, respectively, for each analyte. Urine samples were analyzed using either a 20- or 200-fold dilution with 50% acetonitrile and assayed against calibration standards prepared in the same solvent.

[2] = test system: P. falciparum (NF54 clone); assay: Blood stage activity against cultured P. falciparum; type: cell-based, Plasmodium falciparum; details: concentration up to 15 μM
[3] = test system: P. vivax liver-stage parasites; assay: P. vivax liver-stage in vitro assay, prophylactic mode; type: cell-based, Plasmodium vivax; details: 20 μM, two independent runs, threshold for activity 75% inhibition
Method: Compound 1 and its metabolites were tested in both prophylactic and radical cure modes for activity against P. vivax liver-stage parasites.[16],[17] In the prophylactic assay, compounds are added the day after sporozoite invasion into hepatocytes in order to characterize the compound activity against established liver forms with a parasitophorous vacuole membrane (as opposed to activity on preinvasion sporozoites) and prior to complete maturation of hypnozoites into drug-insensitive dormant forms, which appear at about 5 days postinvasion.[18] In the radical cure assay, compounds are added at day 5 postinfection to characterize activity against late-stage schizonts and mature PI4K inhibitor-insensitive hypnozoites.[19] In these experiments, the threshold for activity is 75% inhibition. […] Similarly, as previously described,[20] 10 μM concentrations of 1 and its metabolites were also tested for activity against P. cynomolgi schizont (large forms) and hypnozoite (small forms) liver-stage parasites cultured in rhesus monkey hepatocytes. In these experiments, the threshold for activity is 50% inhibition.
Compounds were prepared as 20 mM stock solutions in DMSO and tested in an eight-point semilog (1/3) dilution series from 20 μM in 384-well assay plates in both prophylactic and radical cure mode against P. vivax liver-stage parasites as previously described.[16] Following ethical approval from the Institutional Ethics Committee of the Thai Ministry of Public Health, the Ethical Review Committee of Faculty of Tropical Medicine, Mahidol University (TMEC 11-008 and 14-016), the Oxford Tropical Medicine Ethical Committee, Oxford University, England (OxTREC 17-11 and 40–14), and the Cambodian National Ethics Committee for Health Research (101NECHR), isolates of P. vivax infected blood were collected from patent volunteers in Tak province, Thailandm and Mondulkiri province, Cambodia. Samples were collected by venipuncture into heparin tubes prior to replacement of patient serum with nonimmune AB human serum and feeding to laboratory-reared Anopheles dirus cracens or An. dirus A mosquitoes via water-jacket artificial membrane feeders or the Hemotek insect feeding system (Hemotek, Blackburn, UK) set to maintain the bloodmeal temperature at 37 °C. […] Cryopreserved human hepatocytes (BioIVT, Baltimore, Maryland, USA) were thawed into InVitroGro CP Medium (BioIVT), quantified for viability by trypan blue dye exclusion, diluted to 800–1000 live cells per microliter, and 18000 live cells were plated into each well of a collagen-coated 384-well plate (Greiner, Monroe, NC, USA) by a 16-channel pipet (Finnpipette, Thermo Fisher Scientific, Waltham, MA). […]

[4] = PO, 11 mg/kg, individual values n = 2
[5] = male, Sprague-Dawley, rat, plasma, po, 27 mg/kg

With CCN(CC)CCN(CCN(CC)CC)c1cc(OC)c(OC)cc1Br [Compound 1, 4-(2-bromo-4,5-dimethoxyphenyl)-1,1,7,7-tetraethyldiethylenetriamine] the “dose excreted in urine as parent” value ([1]; IV, 3 mg/kg, individual values) was 9.2% and 10.7%, the Cmax [1, 4] was 50 nM and the Tmax [1, 4] was 0.8 h. The plasma half-life [1, 4] was 6.1 h, the half-life ([1]; male, Sprague-Dawley, rat, plasma, intravenous and oral, after IV and PO administration, read-out: terminal half-life) was 5 to 7 h and the clearance ([1]; male, Sprague-Dawley, rat, plasma, iv, 3 mg/kg) was 147 ± 33 mL/min/kg. The half-life ([1]; male, Sprague-Dawley, rat, plasma, iv, 3 mg/kg, IV, 3 mg/kg, n = 5, read-out: plasma half-life (converted)) was 7 ± 1.3 h, the Vd ([1]; male, Sprague-Dawley, rat, plasma, iv, 3 mg/kg, read-out: plasma volume of distribution) was 51 ± 10 L/kg and the bioavailability ([1]; male, Sprague-Dawley, rat, plasma, po, 11 mg/kg) was roughly 16%. The Tmax ([1]; male, Sprague-Dawley, rat, plasma, po, 11 mg/kg, PO, 11 mg/kg, individual values n = 2, read-out: Tmax) was 1 h, the half-life ([1]; male, Sprague-Dawley, rat, plasma, po, 11 mg/kg, PO, 11 mg/kg, individual values n = 2, read-out: plasma half-life (converted)) was 4.9 h and the Cmax ([1]; male, Sprague-Dawley, rat, plasma, po, 11 mg/kg, individual values n = 2) was 70 nM. It also gave a Cmax [1, 5] of 310 ± 30 nM, a bioavailability [1, 5] of roughly 27% and a half-life ([1]; male, Sprague-Dawley, rat, plasma, po, 27 mg/kg, PO, 27 mg/kg, n = 3, read-out: plasma half-life (converted)) of 7.4 ± 1.3 h. For the same compound, the Tmax ([1]; male, Sprague-Dawley, rat, plasma, po, 27 mg/kg, PO, 27 mg/kg, read-out: Tmax) was 1 h, the Tmax ([1]; male, Sprague-Dawley, rat, plasma, po, oral administration, read-out: time of maximum plasma concentrations postdose) was roughly 1 h and the blood plasma ratio ([1]; male, Sprague-Dawley, whole blood and plasma, 3 mg/kg, rat, IV column) was 2.1. The “renal elimination as share of overall in vivo clearance” value ([1]; rat) was “approximately 10%”, the blood stage activity [2] was “no blood stage activity” and the “activity against schizonts or hypnozoites” value [3] was “no activity”.
